Test results taken from PMC7293037, “Fuse to defuse: a self-limiting ribonuclease-ring nuclease fusion for type III CRISPR defence” (Nucleic Acids Research, 2020).
pKd: −log10 of the molar value. Like-named read-outs stand apart in the source and are kept apart here.

Key:
Csx1-Crn2 [1] = molecular target: T1, Csx1-Crn2; test: EMSA with radiolabelled cA4; assay type: binding, Marinitoga piezophila; details: pH 7.5, 2 mM MgCl2, 25 °C; Crn2 ring nuclease site (CARF site also present); labelled compound; read-out: apparent KD
T1 construct: full length, 563 aa natural fusion; synthetic gene codon-optimised, expressed in E. coli C43 (DE3); N-terminal His tag removed by TEV; V177L in the cloned gene; dimer

Csx1-Crn2 [2] = molecular target: T1, Csx1-Crn2; test: EMSA with radiolabelled cA4; assay type: binding, Marinitoga piezophila; details: pH 7.5, 2 mM MgCl2, 25 °C; Crn2 ring nuclease site (CARF site also present); labelled compound; no obvious gel shift, value judged from cA4 cleavage at high protein concentration; discussion gives > 1; read-out: apparent KD

Nc1ncnc2c1ncn2[C@@H]1O[C@@H]2COP(=O)(O)O[C@H]3[C@@H](O)[C@H](n4cnc5c(N)ncnc54)O[C@@H]3COP(=O)(O)O[C@H]3[C@@H](O)[C@H](n4cnc5c(N)ncnc54)O[C@@H]3COP(=O)(O)O[C@H]3[C@@H](O)[C@H](n4cnc5c(N)ncnc54)O[C@@H]3COP(=O)(O)O[C@H]2[C@H]1O [cA4]
pKd (Csx1-Crn2 [1]): ~7.70
pKd (Csx1-Crn2 [2]): ~6.00
